This passage reports IC50 results from patent publication US20260297081A1, “COMPOUNDS AND METHODS OF TREATING CANCERS” (Cullgen Inc., priority 2023, published 2026).

What is called IC50 is the midpoint of a concentration-inhibition curve.

The experiment deals with MCF7 cells. The experiment can be described thus: Anti-proliferation (viability) of MCF7 cells (Table 7, FIG. 2B). It counts as cell-based. To be noted: 3-6 days, 10-point serial dilution, read-out: GI IC50 in MCF-7.

Where two headings read alike, the source gives them in different places.

Turning to `CCn1nc(NC(=O)c2ccc(NC)nc2NC2CC3(CC(NC(=O)CN4CCN(c5ccc(Nc6ncc7c(C)c(C(C)=O)c(=O)n(C8CCCC8)c7n6)nc5)CC4)C3)C2)cc1C` (stereo not drawn) [CPD-312, 2-((6-(2-(4-(6-((6-acetyl-8-cyclopentyl-5-methyl-7-oxo-7,8-dihydropyrido[2,3-d]pyrimidin-2-yl)amino)pyridin-3-yl)piperazin-1-yl)acetamido)spiro[3.3]heptan-2-yl)amino)-N-(1-ethyl-5-methyl-1H-pyrazol-3-yl)-6-(methylamino)nicotinamide], the IC50 (Homo sapiens, MCF7, MCF7 cells) is more than 100 nM.
Still for that read-out and setting: the figure for `CC(=O)c1c(C)c2cnc(Nc3ccc(N4CCN(CCC(=O)N5CCC(Nc6nc(NC(C)C)ccc6C(=O)Nc6cn(C)c(C7CC7)n6)CC5)CC4)cn3)nc2n(C2CCCC2)c1=O` [CPD-313, 2-((1-(3-(4-(6-((6-acetyl-8-cyclopentyl-5-methyl-7-oxo-7,8-dihydropyrido[2,3-d]pyrimidin-2-yl)amino)pyridin-3-yl)piperazin-1-yl)propanoyl)piperidin-4-yl)amino)-N-(2-cyclopropyl-1-methyl-1H-imidazol-4-yl)-6-(isopropylamino)nicotinamide] is more than 100 nM; for `CCCn1nc(NC(=O)c2ccc(NC)nc2NC2CC3(CC(NC(=O)CN4CCN(c5ccc(Nc6ncc7c(C)c(C(C)=O)c(=O)n(C8CCCC8)c7n6)nc5)CC4)C3)C2)cc1C` (stereo not drawn) [CPD-314, 2-((6-(2-(4-(6-((6-acetyl-8-cyclopentyl-5-methyl-7-oxo-7,8-dihydropyrido[2,3-d]pyrimidin-2-yl)amino)pyridin-3-yl)piperazin-1-yl)acetamido)spiro[3.3]heptan-2-yl)amino)-N-(5-methyl-1-propyl-1H-pyrazol-3-yl)-6-(methylamino)nicotinamide] it is more than 100 nM; for `CNc1ccc(C(=O)Nc2cc(C)n(C3CC3)n2)c(NC2CC3(CC(NC(=O)CN4CCN(c5ccc(Nc6ncc7c(C)c(C(C)=O)c(=O)n(C8CCCC8)c7n6)nc5)CC4)C3)C2)n1` (stereo not drawn) [CPD-315, 2-((6-(2-(4-(6-((6-acetyl-8-cyclopentyl-5-methyl-7-oxo-7,8-dihydropyrido[2,3-d]pyrimidin-2-yl)amino)pyridin-3-yl)piperazin-1-yl)acetamido)spiro[3.3]heptan-2-yl)amino)-N-(1-cyclopropyl-5-methyl-1H-pyrazol-3-yl)-6-(methylamino)nicotinamide] it is more than 100 nM.
Same read-out and setting: the figure for `CC(=O)c1c(C)c2cnc(Nc3ccc(N4CCN(CC(=O)NC5CC6(C5)CC(Oc5nc(NC(C)C)ccc5C(=O)Nc5cn(C)c(C7CC7)n5)C6)CC4)cn3)nc2n(C2CCCC2)c1=O` (stereo not drawn) [CPD-317, 2-((6-(2-(4-(6-((6-acetyl-8-cyclopentyl-5-methyl-7-oxo-7,8-dihydropyrido[2,3-d]pyrimidin-2-yl)amino)pyridin-3-yl)piperazin-1-yl)acetamido)spiro[3.3]heptan-2-yl)oxy)-N-(2-cyclopropyl-1-methyl-1H-imidazol-4-yl)-6-(isopropylamino)nicotinamide] is more than 100 nM; for `CC(=O)c1c(C)c2cnc(Nc3ccc(N4CCN(CC(=O)NC5CC6(C5)CC(Nc5nc(CC(C)C)ccc5C(=O)Nc5cn(C)c(C7CC7)n5)C6)CC4)cn3)nc2n(C2CCCC2)c1=O` (stereo not drawn) [CPD-318, 2-((6-(2-(4-(6-((6-acetyl-8-cyclopentyl-5-methyl-7-oxo-7,8-dihydropyrido[2,3-d]pyrimidin-2-yl)amino)pyridin-3-yl)piperazin-1-yl)acetamido)spiro[3.3]heptan-2-yl)amino)-N-(2-cyclopropyl-1-methyl-1H-imidazol-4-yl)-6-isobutylnicotinamide] it is more than 100 nM; for `CNc1ccc(C(=O)Nc2ccc(N(C)C)nn2)c(NC2CC(N3CCC(CN4CCN(c5ccc(Nc6ncc7c(C)c(C(C)=O)c(=O)n(C8CCCC8)c7n6)nc5)CC4)C3)C2)n1` (stereo not drawn) [CPD-319, 2-((3-(3-((4-(6-((6-acetyl-8-cyclopentyl-5-methyl-7-oxo-7,8-dihydropyrido[2,3-d]pyrimidin-2-yl)amino)pyridin-3-yl)piperazin-1-yl)methyl)pyrrolidin-1-yl)cyclobutyl)amino)-N-(6-(dimethylamino)pyridazin-3-yl)-6-(methylamino)nicotinamide] it is more than 100 nM.
On the same count and under the same terms, the figure for `CNc1ccc(C(=O)Nc2cn(C)c(C3CC3)n2)c(NC2CC3(C2)CN(C(=O)C2CC24CCN(c2ccc(Nc5ncc6c(C)c(C(C)=O)c(=O)n(C7CCCC7)c6n5)nc2)CC4)C3)n1` (stereo not drawn) [CPD-320, 2-((2-(6-(6-((6-acetyl-8-cyclopentyl-5-methyl-7-oxo-7,8-dihydropyrido[2,3-d]pyrimidin-2-yl)amino)pyridin-3-yl)-6-azaspiro[2.5]octane-1-carbonyl)-2-azaspiro[3.3]heptan-6-yl)amino)-N-(2-cyclopropyl-1-methyl-1H-imidazol-4-yl)-6-(methylamino)nicotinamide] is more than 100 nM; for `CNc1ccc(C(=O)Nc2cn(C)c(C3CC3)n2)c(NC2CC3(C2)CN(C(=O)C2CC4(CCN(c5ccc(Nc6ncc7c(C)c(C(C)=O)c(=O)n(C8CCCC8)c7n6)nc5)CC4)C2)C3)n1` (stereo not drawn) [CPD-321, 2-((2-(7-(6-((6-acetyl-8-cyclopentyl-5-methyl-7-oxo-7,8-dihydropyrido[2,3-d]pyrimidin-2-yl)amino)pyridin-3-yl)-7-azaspiro[3.5]nonane-2-carbonyl)-2-azaspiro[3.3]heptan-6-yl)amino)-N-(2-cyclopropyl-1-methyl-1H-imidazol-4-yl)-6-(methylamino)nicotinamide] it is more than 100 nM; for `CNc1ccc(C(=O)Nc2ccc(N(C)C)nn2)c(NC2CC3(C2)CN(C(=O)C2CC4(CCN(c5ccc(Nc6ncc7c(C)c(C(C)=O)c(=O)n(C8CCCC8)c7n6)nc5)CC4)C2)C3)n1` (stereo not drawn) [CPD-325, 2-((2-(7-(6-((6-acetyl-8-cyclopentyl-5-methyl-7-oxo-7,8-dihydropyrido[2,3-d]pyrimidin-2-yl)amino)pyridin-3-yl)-7-azaspiro[3.5]nonane-2-carbonyl)-2-azaspiro[3.3]heptan-6-yl)amino)-N-(6-(dimethylamino)pyridazin-3-yl)-6-(methylamino)nicotinamide] it is more than 100 nM.
Regarding `CC(=O)c1c(C)c2cnc(Nc3ccc(N4CCN(C(C)C(=O)NC5CC(Nc6nc(NC(C)C)ccc6C(=O)Nc6cn(C)c(C7CC7)n6)C5)CC4)cn3)nc2n(C2CCCC2)c1=O` (stereo not drawn) [CPD-327, 2-((3-(2-(4-(6-((6-acetyl-8-cyclopentyl-5-methyl-7-oxo-7,8-dihydropyrido[2,3-d]pyrimidin-2-yl)amino)pyridin-3-yl)piperazin-1-yl)propanamido)cyclobutyl)amino)-N-(2-cyclopropyl-1-methyl-1H-imidazol-4-yl)-6-(isopropylamino)nicotinamide], the IC50 (Homo sapiens, MCF7, MCF7 cells) is more than 100 nM.
Consider `CNc1ccc(C(=O)Nc2ccc(N(C)C)nn2)c(NC2CCN(C(=O)C3CC4(CCN(c5ccc(Nc6ncc7c(C)c(C(C)=O)c(=O)n(C8CCCC8)c7n6)nc5)CC4)C3)CC2)n1` [CPD-329, 2-((1-(7-(6-((6-acetyl-8-cyclopentyl-5-methyl-7-oxo-7,8-dihydropyrido[2,3-d]pyrimidin-2-yl)amino)pyridin-3-yl)-7-azaspiro[3.5]nonane-2-carbonyl)piperidin-4-yl)amino)-N-(6-(dimethylamino)pyridazin-3-yl)-6-(methylamino)nicotinamide], for which the IC50 (Homo sapiens, MCF7, MCF7 cells) was more than 100 nM.
Same read-out and setting: the figure for `CNc1ccc(C(=O)Nc2cn(C)c(C(C)O)n2)c(NC2CC3(CC(NC(=O)CN4CCN(c5ccc(Nc6ncc7c(C)c(C(C)=O)c(=O)n(C8CCCC8)c7n6)nc5)CC4)C3)C2)n1` (stereo not drawn) [CPD-330, 2-((6-(2-(4-(6-((6-acetyl-8-cyclopentyl-5-methyl-7-oxo-7,8-dihydropyrido[2,3-d]pyrimidin-2-yl)amino)pyridin-3-yl)piperazin-1-yl)acetamido)spiro[3.3]heptan-2-yl)amino)-N-(2-(1-hydroxyethyl)-1-methyl-1H-imidazol-4-yl)-6-(methylamino)nicotinamide] is more than 100 nM; for `CNc1ccc(C(=O)Nc2ccc(N(C)C)nn2)c(NC2CC(C(=O)N3CC4(CCN(c5ccc(Nc6ncc7c(C)c(C(C)=O)c(=O)n(C8CCCC8)c7n6)nc5)CC4)C3)C2)n1` (stereo not drawn) [CPD-331, 2-((3-(7-(6-((6-acetyl-8-cyclopentyl-5-methyl-7-oxo-7,8-dihydropyrido[2,3-d]pyrimidin-2-yl)amino)pyridin-3-yl)-2,7-diazaspiro[3.5]nonane-2-carbonyl)cyclobutyl)amino)-N-(6-(dimethylamino)pyridazin-3-yl)-6-(methylamino)nicotinamide] it is more than 100 nM; for `CNc1ccc(C(=O)Nc2ccc(N(C)C)nn2)c(NC2CC(C(=O)N3CC(N4CCN(c5ccc(Nc6ncc7c(C)c(C(C)=O)c(=O)n(C8CCCC8)c7n6)nc5)CC4)C3)C2)n1` (stereo not drawn) [CPD-332, 2-((3-(3-(4-(6-((6-acetyl-8-cyclopentyl-5-methyl-7-oxo-7,8-dihydropyrido[2,3-d]pyrimidin-2-yl)amino)pyridin-3-yl)piperazin-1-yl)azetidine-1-carbonyl)cyclobutyl)amino)-N-(6-(dimethylamino)pyridazin-3-yl)-6-(methylamino)nicotinamide] it is more than 100 nM.
As to `CNc1ccc(C(=O)Nc2ccc(N(C)C)nn2)c(NC2CC(C(=O)N3CCC(N4CCN(c5ccc(Nc6ncc7c(C)c(C(C)=O)c(=O)n(C8CCCC8)c7n6)nc5)CC4)CC3)C2)n1` (stereo not drawn) [CPD-334], where the note is “MCF7 cells”, the IC50 was more than 100 nM.
As to `CNc1ccc(C(=O)Nc2ccc(N(C)C)nn2)c(NC2CC(n3cc(CN4CCN(c5ccc(Nc6ncc7c(C)c(C(C)=O)c(=O)n(C8CCCC8)c7n6)nc5)CC4)nn3)C2)n1` (stereo not drawn) [CPD-335, 2-((3-(4-((4-(6-((6-acetyl-8-cyclopentyl-5-methyl-7-oxo-7,8-dihydropyrido[2,3-d]pyrimidin-2-yl)amino)pyridin-3-yl)piperazin-1-yl)methyl)-1H-1,2,3-triazol-1-yl)cyclobutyl)amino)-N-(6-(dimethylamino)pyridazin-3-yl)-6-(methylamino)nicotinamide], where the note is “Homo sapiens, MCF7, MCF7 cells”, the IC50 is more than 100 nM.
Same read-out and setting: the figure for `CNc1ccc(C(=O)Nc2ccc(N(C)C)nn2)c(N[C@H]2C[C@@H](CN3CCC(CN4CCN(c5ccc(Nc6ncc7c(C)c(C(C)=O)c(=O)n(C8CCCC8)c7n6)nc5)CC4)C3)C2)n1` (stereo partly drawn) [CPD-336] is more than 100 nM.
